We go through 18 compounds from patent publication US11873298B2, “Compounds and uses thereof” (JANSSEN PHARMACEUTICA NV, priority 2017, dated 2024).

Where “and” joins values, the source holds several entries; their conditions need not be identical. Identical values can stand only once.

For assay [1], the target named is T1, Ole1 (Saccharomyces cerevisiae, UniProt P21147).
T1 construct: expressed in transfected cells; host or cells: S. cerevisiae ole1Δ strain (W303 pdr1Δ pdr3Δ background), plasmid pRS316 with TDH3 promoter and CYC1 terminator
T1 sequence (P21147 1-510): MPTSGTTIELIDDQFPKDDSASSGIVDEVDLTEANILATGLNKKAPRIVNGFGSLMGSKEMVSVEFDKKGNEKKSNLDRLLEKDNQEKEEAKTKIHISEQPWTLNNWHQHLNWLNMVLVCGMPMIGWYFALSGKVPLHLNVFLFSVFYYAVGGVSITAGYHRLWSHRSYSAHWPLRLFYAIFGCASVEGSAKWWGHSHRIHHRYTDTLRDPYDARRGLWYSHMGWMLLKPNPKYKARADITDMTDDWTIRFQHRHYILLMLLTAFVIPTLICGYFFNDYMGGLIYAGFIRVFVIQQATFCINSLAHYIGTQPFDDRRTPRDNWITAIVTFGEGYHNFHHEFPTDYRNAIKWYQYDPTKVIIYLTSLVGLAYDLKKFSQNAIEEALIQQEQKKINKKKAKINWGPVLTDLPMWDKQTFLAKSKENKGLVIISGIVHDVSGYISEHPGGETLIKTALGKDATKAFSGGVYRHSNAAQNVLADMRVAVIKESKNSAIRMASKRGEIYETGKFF
As to the kind of experiment: Growth inhibition of yeast strain expressing Ole1 as sole desaturase. It counts as cell-based. The note with it: yeast strain expressing Ole1 as sole desaturase. The method, boiled down: (§1)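 Plasmid-complemented ole1Δ yeast, drug-pump deleted (pdr1Δ pdr3Δ), depend solely on the introduced Ole1, SCD1 or SCD5 desaturase. Compounds are added from DMSO to cells in uracil-free galactose medium, 2× density 0.02, and OD600 is read after 24 h or 40 h respectively.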

The target of assay [2] is T2, SCD1 (Homo sapiens, UniProt O00767).
T2 construct: host or cells: S. cerevisiae ole1Δ strain (W303 pdr1Δ pdr3Δ background), plasmid pRS316 with TDH3 promoter and CYC1 terminator
T2 sequence (O00767 1-359): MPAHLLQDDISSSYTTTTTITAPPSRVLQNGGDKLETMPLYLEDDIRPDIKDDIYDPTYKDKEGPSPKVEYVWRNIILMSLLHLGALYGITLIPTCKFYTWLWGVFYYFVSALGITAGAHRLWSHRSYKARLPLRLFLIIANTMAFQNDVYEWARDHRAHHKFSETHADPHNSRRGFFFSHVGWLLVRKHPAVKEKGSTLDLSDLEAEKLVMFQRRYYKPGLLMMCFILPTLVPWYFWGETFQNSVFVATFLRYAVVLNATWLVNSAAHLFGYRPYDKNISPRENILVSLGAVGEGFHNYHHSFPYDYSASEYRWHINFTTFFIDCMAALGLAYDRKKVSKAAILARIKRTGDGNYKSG
Nature of the assay: Growth inhibition of humanized yeast strain expressing SCD1 as sole desaturase. It counts as cell-based. The note with it: humanized yeast strain expressing SCD1. In short, it runs like this: as §1

The target of assay [3] is T3, SCD5 (Homo sapiens, UniProt Q86SK9).
T3 construct: host or cells: S. cerevisiae ole1Δ strain (W303 pdr1Δ pdr3Δ background), plasmid pRS316 with TDH3 promoter and CYC1 terminator
T3 sequence (Q86SK9 1-330): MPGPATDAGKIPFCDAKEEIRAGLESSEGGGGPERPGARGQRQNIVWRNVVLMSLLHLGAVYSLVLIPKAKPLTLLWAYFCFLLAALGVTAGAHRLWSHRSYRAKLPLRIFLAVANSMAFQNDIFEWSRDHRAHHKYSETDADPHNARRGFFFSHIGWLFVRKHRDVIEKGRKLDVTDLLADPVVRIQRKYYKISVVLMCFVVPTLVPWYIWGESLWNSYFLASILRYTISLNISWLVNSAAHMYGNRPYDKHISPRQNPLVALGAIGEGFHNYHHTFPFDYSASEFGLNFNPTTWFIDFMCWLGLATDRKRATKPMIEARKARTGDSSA
Nature of the assay: Growth inhibition of humanized yeast strain expressing SCD5 as sole desaturase. It counts as cell-based. Conditions: humanized yeast strain expressing SCD5. The method, boiled down: as §1

Assay [4] concerns yeast strains expressing the human α-synuclein. Nature of the assay: Yeast α-synuclein toxicity rescue assay (OD600 growth). Conditions: 40 h; for EC50: read-out: α-Syn EC50; for Emax: read-out: α-Syn Emax.

For the compound `CCOc1ccc(-c2noc(C3CCN(C(=O)C(CO)N4Cc5ccccc5C4=O)CC3)n2)cc1OC` (centres unmarked) [Compound 128], in assay [1], the IC50 was over 45 µM; the “OLE1 % Max Inhibition” value is 81.43% and 60.60%. In assay [2], the IC50 is over 45 µM. For the same compound, in assay [3], the IC50 was over 45 µM; the “SCD5 % Max Inhibition” value is 1.89% and 3.32%. For the same compound, in assay [4], the EC50 came to 252 nM and the Emax is 306%.

In the case of `Cn1c(=O)n(C)c2cc(-c3noc(C4CCN(C(=O)CNC(=O)c5ccccc5)CC4)n3)ccc21` [Compound 122], in assay [1], the IC50 was over 45 µM and the “OLE1 % Max Inhibition” value came to 109.89%. In assay [2], the IC50 is over 45 µM and the “SCD1 % Max Inhibition” value stood at 92.73%. Also, in assay [3], the IC50 is over 45 µM and the “SCD5 % Max Inhibition” value is reported as 90.04%. Also, in assay [4], the EC50 worked out at 139 nM and the Emax was 414%.

Consider `CCOc1ccc(-c2noc(C3CCN(C(=O)CN4Cc5ccccc5C4=O)CC3)n2)nc1OC` [Compound 142], for which, in assay [1], the IC50 was over 45 µM and the “OLE1 % Max Inhibition” value amounted to 1.11%. Moreover, in assay [2], the IC50 was over 45 µM and the “SCD1 % Max Inhibition” value was found to be 80.83%. Moreover, in assay [3], the IC50 was over 45 µM and the “SCD5 % Max Inhibition” value is reported as 26.00%. Moreover, in assay [4], the EC50 amounted to 7640 nM and the Emax worked out at 319%.

As for `Cc1nn(C)c2cc(-c3noc(C4CCN(C(=O)[C@@H]5CC(=O)N(c6ccccc6)C5)CC4)n3)ccc12` [compound 91], the IC50 in assay [1], in assay [2] and in assay [3] was over 45 µM each time. Further, in assay [4], the EC50 is 107 nM. Besides, the Emax in assay [4] amounted to 452%.

Take `Cc1nn(C)c2cc(-c3noc(C4CCN(C(=O)C5CC(=O)N(c6ccc(C#N)cc6)C5)CC4)n3)ccc12` (centres unmarked) [Compound 139]: in assay [1], the IC50 was over 45 µM and the “OLE1 % Max Inhibition” value worked out at 25.30%. Also, in assay [2], the IC50 was over 45 µM and the “SCD1 % Max Inhibition” value came out at 87.50%. For the same compound, in assay [3], the IC50 is over 45 µM and the “SCD5 % Max Inhibition” value was 75.11%. In assay [4], the EC50 came to 21 nM and the Emax is 437%.

As to `CCOc1ncc(-c2noc(C3CCN(C(=O)C4CC(=O)N(c5ccccc5)C4)CC3)n2)cc1OC` (centres unmarked) [Compound 130], in assay [1], the IC50 was over 45 µM and the “OLE1 % Max Inhibition” value is 2.75%. In addition, in assay [2], the IC50 was over 45 µM and the “SCD1 % Max Inhibition” value is reported as 97.82%. In assay [3], the IC50 is over 45 µM and the “SCD5 % Max Inhibition” value was determined as 99.82%. Moreover, in assay [4], the EC50 was 1440 nM and the Emax worked out at 328%.

In the case of `Cc1nn(C)c2ccc(-c3noc(C4CCN(C(=O)CNC(=O)c5ccccc5)CC4)n3)cc12` [Compound 95], the IC50 in assay [1] is over 45 µM; in assay [2] it was 39.2 µM; in assay [3], over 45 µM. Further, the EC50 in assay [4] came out at 91 nM. In assay [4], the Emax was determined as 827%.

As to `COc1ccc(-c2noc(C3CCN(C(=O)C4CC(=O)N(C5CCCCC5)C4)CC3)n2)cc1OC` (centres unmarked) [Compound 125], in assay [1], the IC50 is over 45 µM and the “OLE1 % Max Inhibition” value is 92.36%. In addition, in assay [2], the IC50 was over 45 µM and the “SCD1 % Max Inhibition” value amounted to 77.68%. Also, in assay [3], the concentration for half-maximal inhibition (IC50) was over 45 µM and the “SCD5 % Max Inhibition” value came to 94.83%. Further, in assay [4], the EC50 is 16700 nM and the Emax worked out at 200%.

With `CCOc1ccc(-c2noc(C3CCN(C(=O)[C@H]4CC[C@H](c5ccccc5)N4)CC3)n2)cc1OC` [Compound 119], in assay [1], the IC50 was over 45 µM and the “OLE1 % Max Inhibition” value is on record as 111.86%. For the same compound, in assay [2], the IC50 was over 45 µM and the “SCD1 % Max Inhibition” value came to 86.22%. In addition, in assay [3], the IC50 was over 45 µM and the “SCD5 % Max Inhibition” value is 93.93%. In addition, in assay [4], the EC50 came to 20900 nM and the Emax came to 61%.

With `COc1ccccc1-c1noc(C2CCN(C(=O)CNC(=O)c3ccc(C)c(C)c3)CC2)n1` [Compound 58], in assay [1], the IC50 was over 45 µM and the “OLE1 % Max Inhibition” value is given as 92.35%. In assay [2], the IC50 is over 45 µM and the “SCD1 % Max Inhibition” value was 101.47%. Also, in assay [3], the IC50 was over 45 µM and the “SCD5 % Max Inhibition” value is listed as 66.93%. In assay [4], the EC50 turned out to be 7940 nM and the Emax worked out at 23%.

`Cc1nn(C)c2cc(-c3noc(C4CCN(C(=O)C5CC(=O)N(c6ccccc6)C5)CC4)n3)ncc12` (centres unmarked) [Compound 120]: in assay [1], the IC50 is over 45 µM and the “OLE1 % Max Inhibition” value turned out to be 119.08%. Besides, in assay [2], the IC50 was over 45 µM and the “SCD1 % Max Inhibition” value is recorded as 99.80%. Also, in assay [3], the IC50 is over 45 µM and the “SCD5 % Max Inhibition” value turned out to be 96.39%. Besides, in assay [4], the EC50 is 19500 nM and the Emax worked out at 139%.

Regarding `COc1ccc(-c2noc(C3CCN(C(=O)CNC(=O)C(C)C)CC3)n2)cc1OC` [Compound 47], in assay [1], the concentration for half-maximal inhibition (IC50) is over 45 µM and the “OLE1 % Max Inhibition” value is 109.20%. Also, in assay [2], the IC50 is over 45 µM and the “SCD1 % Max Inhibition” value was determined as 73.30%. Also, in assay [3], the IC50 was over 45 µM and the “SCD5 % Max Inhibition” value turned out to be 74.25%. Besides, in assay [4], the EC50 came out at 16500 nM and the Emax was 88%.

Regarding `CCOc1ccc(-c2noc(C3CCN(C(=O)c4cc(-c5ccccc5)no4)CC3)n2)cc1OC` [compound 92], the IC50 in assay [1], in assay [2] and in assay [3] was over 45 µM in each case. The EC50 in assay [4] was 2500 nM. Also, in assay [4], the Emax is 187%.

With `CCOc1ncc(-c2noc(C3CCN(C(=O)CN4Cc5ccccc5C4=O)CC3)n2)cc1OC` [Compound 131], in assay [1], the IC50 worked out at 25.8 µM and the “OLE1 % Max Inhibition” value came to 39.81%. In assay [2], the IC50 was over 45 µM and the “SCD1 % Max Inhibition” value was found to be 96.48%. For the same compound, in assay [3], the IC50 is over 45 µM and the “SCD5 % Max Inhibition” value was 98.92%. In addition, in assay [4], the EC50 is 167 nM and the Emax was 352%.

For the compound `Cc1ccc(-c2noc(C3CCN(C(=O)C4CC(=O)N(c5ccc(C)c(C)c5)C4)CC3)n2)cc1` (centres unmarked) [compound 2], the IC50 in assay [1], in assay [2] and in assay [3] was over 45 µM in each case. Further, the EC50 in assay [4] is 8570 nM. Besides, the Emax in assay [4] was determined as 80%.

With `Cc1nn(C)c2nc(-c3noc(C4CCN(C(=O)CNC(=O)c5ccccc5)CC4)n3)ccc12` [Compound 115], in assay [1], the IC50 was over 45 µM and the “OLE1 % Max Inhibition” value is listed as 101.68%. In addition, in assay [2], the IC50 was over 45 µM and the “SCD1 % Max Inhibition” value was determined as 77.36%. In assay [3], the IC50 was over 45 µM and the “SCD5 % Max Inhibition” value was found to be 77.85%. In addition, in assay [4], the EC50 was 887 nM and the Emax is 326%.

Consider `CCOc1ccc(-c2noc(C3CCN(C(=O)CNC(=O)c4ccccc4)CC3)n2)cc1Cl` [compound 87], for which, in assay [4], the EC50 was 1930 nM and the Emax was determined as 579%.

For `Cc1nn(C)c2cc(-c3noc(C4CCN(C(=O)CNC(=O)c5ccc(Cl)cc5)CC4)n3)ccc12` [Compound 269], in assay [1], the IC50 was over 45 µM; the “OLE1 % Max Inhibition” value is 6.62% and 4.57%. Also, the “SCD1 % Max Inhibition” value in assay [2] was 38.78% and 25.11%. In assay [3], the IC50 is over 45 µM; the “SCD5 % Max Inhibition” value is 8.38% and 5.30%.

In general, IC50 refers to the concentration at which inhibition is half-maximal. Read a low IC50 as higher potency. The term EC50 denotes the concentration needed to bring the measured effect to its halfway point.
